# Results as given in patent US11643439B2, “Multi-target compound with anticoagulation and antiplatelet activity, preparation method therefor, and use thereof” (SHAANXI MICOT TECHNOLOGY LIMITED COMPANY, priority 2015, dated 2023).
# Marks after values point to notes of the source that are not given here.
# Experiments:
# [1] = system: thrombin-induced pulmonary embolism; experiment: Thrombin-induced pulmonary embolism in mice; type: in vivo, mouse; details: thrombin 1500 u/kg, tail iv 250 IU/kg
# [2] = system: experimental cerebral infarction; experiment: Progressive ischemic stroke (MCAO suture method) in rats; type: in vivo, rat; details: for Cerebral index / Cerebral infarct volume ratio: 24 hours after the surgery
# Protocol: 3.2 Grouping and administration: At 15 min after the mold was established, administration was started by jugular vein intubation, with the first dose and the maintenance dose for 60 min, […], while the model group was administered with physiological saline.
# 3.3 Experimental operation: Suture method (common carotid artery insertion method): the skin on the neck was cut open from a median incision thereon, and the common, external and internal carotid arteries were isolated therefrom. The common carotid artery was ligated at the heart-proximal end and the external carotid artery was ligated at the distal end. The distal end of the internal carotid artery was temporarily occluded with a small vascular clamp, and at the bifurcation of the common, external and internal carotid arteries, a thread for ligature was reserved. A small opening was cut with an eye scissor on the common carotid artery which was close to the internal carotid artery, to allow a certain degree of bending of the MCAO thread, which inserted into the internal carotid artery along the common carotid artery. During the thread insertion, the thread bended towards the direction of the operator, which was slowly pushed forward about 18 mm (from the bifurcation of the arteries), and terminated when a resistance was felt. The reserved thread was ligated at the bifurcation to fix the thread. At 15 min after the mold was established, the first dose was administered followed by maintenance dose for 60 min, and after the administration was finished, the wound in the neck was sutured in a conventional manner.
# 4.1 Neurobehavioral scores: Rats in both the groups were evaluated in terms of their neurobehavioral scores at 4, 8, and 24 hours after the surgery, with a Longa five-point quartering method as the standard: 0 point: no neurological defect; 1 point: adduction and failure to full extension of forelimbs on contralateral side when tail lifting; 2 points: rotation to the contralateral side; 3 points: toppling and falling to the contralateral side when walking; 4 points: failure to walk or coma. Cases with 1 to 4 points were classified as valid models.
# 4.2 observing infarct lesions and infarct volume by TTC staining: At 24 hours after the surgery, the animals were sacrificed and the brain was taken for TTC staining. The infarct volume was calculated by using a mapping software.
# 4.3 Cerebral index, cerebral water content: The rats in each group were rapidly decapitated 24 hours after the surgery and model establishment, and the whole brain was rapidly peeled off, which was then weighed for wet weight and used to calculate the brain index: Brain index=Brain wet weight/Body weight*100%
# [3] = iv 0.5 + 1.25 (mg/kg + mg/kg/h)
Substance,Number of platelets [1],Mortality rate ([1]; within 15 min),"neurological behaviors (neurobehavioral score, Longa) ([2]; iv 90 U/kg + 120 U/kg/h, 4 h after surgery)","neurological behaviors (neurobehavioral score, Longa) ([2]; iv 90 U/kg + 120 U/kg/h, 8 h after surgery)","neurological behaviors (neurobehavioral score, Longa) ([2]; iv 90 U/kg + 120 U/kg/h, 24 h after surgery)",Cerebral index ([2]; iv 90 U/kg + 120 U/kg/h),Cerebral infarct volume ratio ([2]; iv 90 U/kg + 120 U/kg/h),"neurological behaviors (neurobehavioral score, Longa) ([2]; iv 0.5 + 1.25 (mg/kg + mg/kg/h), 4 h after surgery)","neurological behaviors (neurobehavioral score, Longa) ([2]; iv 0.5 + 1.25 (mg/kg + mg/kg/h), 8 h after surgery)","neurological behaviors (neurobehavioral score, Longa) ([2]; iv 0.5 + 1.25 (mg/kg + mg/kg/h), 24 h after surgery)","Cerebral index [2, 3]","Cerebral infarct volume ratio [2, 3]","Cerebral infarct volume ratio ([2]; iv 0.5 + 1.25 (mg/kg + mg/kg/h), listed as polypeptide 2)","neurological behaviors (neurobehavioral score, Longa) ([2]; iv 1.0 + 2.5 (mg/kg + mg/kg/h), 4 h after surgery)","neurological behaviors (neurobehavioral score, Longa) ([2]; iv 1.0 + 2.5 (mg/kg + mg/kg/h), 8 h after surgery)","neurological behaviors (neurobehavioral score, Longa) ([2]; iv 1.0 + 2.5 (mg/kg + mg/kg/h), 24 h after surgery)",Cerebral index ([2]; iv 1.0 + 2.5 (mg/kg + mg/kg/h)),Cerebral infarct volume ratio ([2]; iv 1.0 + 2.5 (mg/kg + mg/kg/h)),"Cerebral infarct volume ratio ([2]; iv 1.0 + 2.5 (mg/kg + mg/kg/h), listed as polypeptide 2)"
Enoxaparin,459.83 ± 49.66 ×10^9,10**^## %,0.63 ± 0.74,0.88 ± 0.64,1.38 ± 0.74,0.6819 ± 0.0356%,10.22 ± 5.38 %,,,,,,,,,,,,
D-Phe Pro Arg Pro Gly Gly Gly Gly Asn Gly Asp Phe Glu Glu Ile Pro Glu Glu Tyr Leu Glu Ala Ala Ala Lys Cys Har Gly Asp Trp Pro Cys [Polypeptide 2],,,,,,,,1.00 ± 0.58,1.00 ± 0.58,1.00 ± 0.58,0.6648 ± 0.0374 %,11.12 ± 6.56 %,11.12±6.56%,0.86 ± 1.07,0.86 ± 0.90,1.14 ± 0.69,0.6830 ± 0.0322%,8.01 ± 6.66 %,8.01±6.66%
